Measurements published in US20220220135A1 (BAR-ILAN UNIVERSITY, priority 2019, published 2022).

Tests used:
[1] = biological target: T1, NPP1 (Homo sapiens, UniProt P22413); assay: Inhibition of human NPP1, ATP as substrate (analogues 9-12); assay type: biochemical; details: ATP (100 μM) as the substrate
T1 sequence (P22413 1-925): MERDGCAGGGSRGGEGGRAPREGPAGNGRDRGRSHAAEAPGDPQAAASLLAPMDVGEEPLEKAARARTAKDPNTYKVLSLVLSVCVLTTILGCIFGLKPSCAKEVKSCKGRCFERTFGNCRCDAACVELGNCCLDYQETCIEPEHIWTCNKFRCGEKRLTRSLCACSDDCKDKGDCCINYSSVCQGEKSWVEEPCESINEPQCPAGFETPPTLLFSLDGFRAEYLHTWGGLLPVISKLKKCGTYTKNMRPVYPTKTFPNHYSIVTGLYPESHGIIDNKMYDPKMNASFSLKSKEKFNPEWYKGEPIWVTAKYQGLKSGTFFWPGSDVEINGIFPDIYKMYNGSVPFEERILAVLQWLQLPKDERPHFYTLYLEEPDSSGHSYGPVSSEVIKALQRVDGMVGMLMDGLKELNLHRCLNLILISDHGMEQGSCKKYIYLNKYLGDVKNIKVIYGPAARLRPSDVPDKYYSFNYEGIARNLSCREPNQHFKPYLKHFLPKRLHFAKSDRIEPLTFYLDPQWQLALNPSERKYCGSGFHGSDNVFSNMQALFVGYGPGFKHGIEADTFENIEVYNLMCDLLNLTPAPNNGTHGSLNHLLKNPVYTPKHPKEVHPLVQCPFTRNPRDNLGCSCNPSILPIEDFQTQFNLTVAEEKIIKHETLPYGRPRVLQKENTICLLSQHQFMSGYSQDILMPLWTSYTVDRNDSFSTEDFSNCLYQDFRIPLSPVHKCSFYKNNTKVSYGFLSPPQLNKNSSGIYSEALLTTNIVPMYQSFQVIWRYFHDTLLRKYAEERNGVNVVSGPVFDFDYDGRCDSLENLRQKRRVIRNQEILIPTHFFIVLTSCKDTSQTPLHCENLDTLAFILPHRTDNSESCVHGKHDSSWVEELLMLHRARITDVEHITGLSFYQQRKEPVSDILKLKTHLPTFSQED
Description: FIG. 2: Inhibition of NTPDases and NPPs by analogues 9-12 using as substrates ATP (100 μM) for NTPDase1,2,3,8 and pNP-TMP (100 μM) for NPP1,3 (Panel A); and ATP (100 μM) was used as the substrate for NPP1 (Panel B);
At least 2 independent experiments were performed. In panel A, the activity with 100 μM ATP was set as 100%, which was 287±31, 395±67, 278±22, 119±26 nmol of Pi·min−1·mg of protein−1 for human NTPDase1, -2, -3 and -8, respectively, and the activity with 100 μM pNP-TMP was set as 100% which was 67±5, 21±1 nmol of p-nitrophenol·min−1·mg of protein−1 for human NPP1 and NPP3, respectively. In panel B, the activity with 100 μM ATP was set as 100% which was 34±7 nmol of PPi·min−1·mg of protein−1 for NPP1.

[2] = biological target: T2, human P2Y4R (Homo sapiens, UniProt P51582); assay: Calcium mobilization in 1321N1 astrocytoma cells expressing human P2Y4R; assay type: cell-based
T2 construct: expressed in transfected cells; host or cells: 1321N1 astrocytoma cells
T2 sequence (P51582 whole entry): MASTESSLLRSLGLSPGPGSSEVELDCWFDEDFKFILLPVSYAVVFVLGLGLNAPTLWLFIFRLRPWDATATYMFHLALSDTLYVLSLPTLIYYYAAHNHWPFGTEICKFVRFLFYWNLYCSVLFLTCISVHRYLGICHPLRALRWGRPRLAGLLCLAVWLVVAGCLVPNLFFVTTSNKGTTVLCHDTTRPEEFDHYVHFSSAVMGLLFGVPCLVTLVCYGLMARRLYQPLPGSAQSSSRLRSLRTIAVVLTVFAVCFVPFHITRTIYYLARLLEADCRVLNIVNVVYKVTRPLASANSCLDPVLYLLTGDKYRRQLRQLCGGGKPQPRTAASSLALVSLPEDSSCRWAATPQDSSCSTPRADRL
Description: (§1) Given the structural resemblance of 106-109 to the natural ligands of P2Y receptors, adenine and uracil nucleotides as natural substrates, were assessed for agonist potency on the human P2Y1, P2Y2, P2Y4, and P2Y6 receptor. To evaluate NPP1 selectivity of analogs 106-109, they were tested for their ability to activate of the uridine-nucleotide sensitive human recombinant P2Y1,2,4,6-receptors. The agonist potencies of this series of nucleotide analogues on the Gq protein-coupled human P2Y1R, P2Y2R, P2Y4R, and P2Y6R was determined by assessing its ability to induce calcium mobilization in stably transfected 1321N1 astrocytoma cells (Table 8). The nucleotide analogues were found in calcium mobilization assays to activate the P2Y2R with mid-micromolar potency.

[3] = biological target: P2Y6R (Homo sapiens, UniProt Q15077); assay: Calcium mobilization in 1321N1 astrocytoma cells expressing human P2Y6R; assay type: cell-based; set-up: expressed in transfected cells; host or cells: 1321N1 astrocytoma cells (stably transfected)
Sequence of P2Y6R (Q15077 whole entry): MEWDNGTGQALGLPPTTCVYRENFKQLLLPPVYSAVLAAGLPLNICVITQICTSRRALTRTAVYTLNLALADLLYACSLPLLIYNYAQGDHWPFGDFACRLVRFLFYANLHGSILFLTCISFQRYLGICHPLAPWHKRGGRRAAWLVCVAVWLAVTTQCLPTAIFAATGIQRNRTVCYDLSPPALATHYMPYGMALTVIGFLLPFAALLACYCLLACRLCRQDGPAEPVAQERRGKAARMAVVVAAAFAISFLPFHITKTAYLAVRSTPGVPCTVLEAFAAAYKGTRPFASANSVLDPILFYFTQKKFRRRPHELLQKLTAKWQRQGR
Description: as §1

[4] = biological target: T1, NPP1; assay: Inhibition of human NPP1, 100 μM p-Nph-5′-TMP as substrate (Tables 5, 6)
[5] = biological target: T3, rat CD73 (Rattus norvegicus, UniProt P21588); assay: Inhibition of rat CD73, 5 μM [3H]AMP as substrate; assay type: biochemical; details: 5 μM [3H]AMP as a substrate; n = 3
T3 sequence (P21588 29-551): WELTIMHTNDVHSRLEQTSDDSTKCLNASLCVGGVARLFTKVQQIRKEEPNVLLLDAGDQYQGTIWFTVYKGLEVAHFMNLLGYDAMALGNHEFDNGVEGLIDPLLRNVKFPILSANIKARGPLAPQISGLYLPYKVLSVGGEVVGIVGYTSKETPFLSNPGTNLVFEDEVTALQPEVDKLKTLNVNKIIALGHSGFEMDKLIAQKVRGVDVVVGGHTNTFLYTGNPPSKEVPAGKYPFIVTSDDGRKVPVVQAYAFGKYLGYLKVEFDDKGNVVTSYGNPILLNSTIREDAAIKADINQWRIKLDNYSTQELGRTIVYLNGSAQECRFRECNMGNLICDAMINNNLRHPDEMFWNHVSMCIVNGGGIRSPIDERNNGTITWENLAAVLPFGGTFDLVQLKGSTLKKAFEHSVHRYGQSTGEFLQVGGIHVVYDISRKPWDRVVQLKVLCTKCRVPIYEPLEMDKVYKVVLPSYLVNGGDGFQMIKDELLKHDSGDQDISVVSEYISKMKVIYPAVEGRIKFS

[6] = biological target: T1, NPP1; assay: Inhibition of human NPP1, 100 μM ATP as substrate (FIG. 9, Table 6); assay type: biochemical; details: ATP (100 μM) as a substrate
Description: Each experiment was performed in triplicates;

Compound | inhibition of human NPP1 activity [1] | % activation at 10 μM, P2Y4 [2] | % activation at 10 μM, P2Y6 [3] | Ki [4] | inhibition at 10 µM ([4]; read-out: % inhibition ± SEM at 10 μM, human NPP1) | % inhibition ± SEM, rat CD73 [5] | inhibition at 10 µM ([6]; 10 μM, n = 3, read-out: % inhibition ± SEM at 10 μM, human NPP1) | Ki ([6]; read-out: Ki (μM ± SD), human NPP1 (converted))
O=c1ccn([C@@H]2O[C@H](COP(=S)(S)OP(=O)(O)OP(=O)(O)OP(=S)(S)OC[C@H]3O[C@@H](n4ccc(=O)[nH]c4=O)[C@H](O)[C@@H]3O)[C@@H](O)[C@H]2O)c(=O)[nH]1 (some centres unmarked) [Analogue 12] | effectively blocked | – | – | – | – | – | – | –
Nc1ncnc2c1ncn2COCCOP(=S)(S)OP(=O)(O)O (centres unmarked) [compound 106] | – | 0 ± 0% | −2 ± 1% | 1810 nM | 67 ± 1% | n.i.d | 68 ± 1% | 0.305 µM
